Measurements published in patent publication US9963445B2, “Chemical compounds” (SYNGENTA PARTICIPATIONS AG, priority 2013, dated 2018).

Key:
Format in all cases: in vivo
Abutilon theophrasti [1] = assay: Post-emergence herbicidal activity, glasshouse pot test; set-up: key: 0 = no damage to plant, 5 = total damage to plant; details: Application post-emergence, rate 1000 g/ha, evaluated after 13 days
In short: (§1)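 Test solution: technical active ingredient in acetone/water (50:50) containing 0.5% Tween 20, applied as an aqueous spray to 8-day-old plants. Evaluation at 13 days, 0–5 damage scale.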

Echinochloa crus-galli [2] = assay: as above; set-up: key: 0 = no damage to plant, 5 = total damage to plant; details: Application post-emergence, rate 1000 g/ha, evaluated after 13 days
In short: as §1

Alopecurus myosuroides [3] = assay: as above; set-up: key: 0 = no damage to plant, 5 = total damage to plant; details: Application post-emergence, rate 1000 g/ha, evaluated after 13 days
In short: as §1

Amaranthus retroflexus [4] = assay: as above; set-up: key: 0 = no damage to plant, 5 = total damage to plant; details: Application post-emergence, rate 1000 g/ha, evaluated after 13 days
In short: as §1

Setaria faberi [5] = assay: as above; set-up: key: 0 = no damage to plant, 5 = total damage to plant; details: Application post-emergence, rate 1000 g/ha, evaluated after 13 days
In short: as §1

zea mays [6] = assay: as above; set-up: key: 0 = no damage to plant, 5 = total damage to plant; details: Application post-emergence, rate 1000 g/ha, evaluated after 13 days
In short: as §1

Abutilon theophrasti [7] = assay: Pre-emergence herbicidal activity, glasshouse pot test; details: pre-emergence spray, rate 1000 g/ha, evaluated after 13 days, scale 0-5
In short: (§2)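 Damage was rated at 13 days from 0 (none) to 5 (total), in a glasshouse kept at 24/16 °C, 14 h light and 65% humidity with watering twice daily. The aqueous spray of active ingredient in 50:50 acetone/water plus 0.5% Tween 20 was applied to soil one day post-sowing, before emergence.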

Echinochloa crus-galli [8] = assay: as above; details: pre-emergence spray, rate 1000 g/ha, evaluated after 13 days, scale 0-5
In short: as §2

Alopecurus myosuroides [9] = assay: as above; details: pre-emergence spray, rate 1000 g/ha, evaluated after 13 days, scale 0-5
In short: as §2

Amaranthus retroflexus [10] = assay: as above; details: pre-emergence spray, rate 1000 g/ha, evaluated after 13 days, scale 0-5
In short: as §2

Setaria faberi [11] = assay: as above; details: pre-emergence spray, rate 1000 g/ha, evaluated after 13 days, scale 0-5
In short: as §2

zea mays [12] = assay: as above; details: pre-emergence spray, rate 1000 g/ha, evaluated after 13 days, scale 0-5
In short: as §2

Row | Structure (SMILES) | ABUTH herbicidal damage score (Abutilon theophrasti [1]) | ECHCG herbicidal damage score (Echinochloa crus-galli [2]) | ALOMY herbicidal damage score (Alopecurus myosuroides [3]) | AMARE herbicidal damage score (Amaranthus retroflexus [4]) | SETFA herbicidal damage score (Setaria faberi [5]) | ZEAMX herbicidal damage score (zea mays [6]) | ABUTH damage score, application pre-emergence (Abutilon theophrasti [7]) | ECHCG damage score, application pre-emergence (Echinochloa crus-galli [8]) | ALOMY damage score, application pre-emergence (Alopecurus myosuroides [9]) | AMARE damage score, application pre-emergence (Amaranthus retroflexus [10]) | SETFA damage score, application pre-emergence (Setaria faberi [11]) | ZEAMX damage score, application pre-emergence (zea mays [12])
1 | CCc1cc(N2C(=O)C(Cl)=C(C)C2O)ncc1Br (stereo not drawn) [AF99] | 5 | 5 | 5 | 5 | 4 | 1 | 0 | 2 | 2 | 2 | 1 | 1
2 | CC1=C(Cl)C(=O)N(c2cc(C(C)(C)C#N)ccn2)C1O (stereo not drawn) [AF100] | 5 | 5 | 5 | 5 | 5 | 4 | 3 | 5 | 4 | 5 | 5 | 3
3 | CCOC(=O)c1cnc(N2C(=O)C(Cl)=C(C)C2O)cc1Cl (stereo not drawn) [AF101] | 5 | 3 | 2 | 5 | 5 | 1 | 1 | 0 | 0 | 2 | 0 | 0
4 | CC1=C(Cl)C(=O)N(c2ccc(C(C)(C)C#N)cn2)C1O (stereo not drawn) [AF102] | 5 | 5 | 5 | 5 | 5 | 5 | 5 | 5 | 3 | 5 | 4 | 3
5 | CC1=C(Cl)C(=O)N(c2cc(C(C)C)c(C(=O)NC(C)(C)C)cn2)C1O (stereo not drawn) [AF103] | 5 | 5 | 4 | 5 | 5 | 3 | 5 | 4 | 4 | 5 | 4 | 3
6 | CC1=C(Cl)C(=O)N(c2cc(C)c(-c3ccsc3)cn2)C1O (stereo not drawn) [AF104] | 4 | 5 | 2 | 5 | 5 | 0 | 1 | 1 | 0 | 5 | 1 | 0
7 | CC1=C(Cl)C(=O)N(c2cc(C(F)(F)F)c(-c3nn(C)c4ccccc34)cn2)C1O (stereo not drawn) [AF105] | 5 | 2 | 3 | 5 | 4 | 0 | 0 | 0 | 0 | 0 | 0 | 0
8 | CC1=C(Br)C(=O)N(c2cc(C(F)(F)F)ccn2)C1O (stereo not drawn) [AG1] | 5 | 5 | 4 | 5 | 5 | 2 | 5 | 2 | 2 | 5 | 3 | 0
9 | COC1=C(C)C(O)N(c2cc(C(F)(F)F)ccn2)C1=O (stereo not drawn) [AI1, 2-hydroxy-4-methoxy-3-methyl-1-[4-(trifluoromethyl)-2-pyridyl]-2H-pyrrol-5-one] | 5 | 5 | 4 | 5 | 5 | 4 | 5 | 4 | 4 | 5 | 5 | 3
10 | COC1=C(C)C(O)N(c2cc(C(F)(F)F)c(Br)cn2)C1=O (stereo not drawn) [AI2] | 5 | 5 | 5 | 5 | 5 | 4 | 3 | 4 | 4 | 5 | 1 | 2
11 | COC1=C(C)C(O)N(c2cc(OC(F)(F)F)ccn2)C1=O (stereo not drawn) [AI3] | 4 | 5 | 5 | 4 | 5 | 1 | 4 | 4 | 3 | 5 | 4 | 2
12 | COC1=C(C)C(O)N(c2cc(C(C)(C)C)ccn2)C1=O (stereo not drawn) [AI4] | 5 | 5 | 5 | 5 | 5 | 3 | 4 | 4 | 3 | 5 | 5 | 1
13 | CCOC1=C(C)C(O)N(c2cc(C(F)(F)F)ccn2)C1=O (stereo not drawn) [AI5, 4-ethoxy-2-hydroxy-3-methyl-1-[4-(trifluoromethyl)-2-pyridyl]-2H-pyrrol-5-one] | 5 | 5 | 4 | 5 | 4 | 3 | 4 | 4 | 4 | 5 | 5 | 3
14 | COC1=C(C)C(O)N(c2cc(C(F)(F)F)c(C(=O)NC(C)(C)C)cn2)C1=O (stereo not drawn) [AI6] | 5 | 5 | 5 | 5 | 5 | 5 | 5 | 5 | 4 | 5 | 5 | 4
15 | COC1=C(C)C(O)N(c2cc3c(cn2)CCCC3)C1=O (stereo not drawn) [AI7] | 4 | 5 | 3 | 3 | 5 | 1 | 1 | 5 | 2 | 3 | 5 | 0
